{"source": "patent US20050119180A1", "about": "“Use of angiotensin 1-7 for enhancing cardiac function” (priority 2002, published 2005)", "key": {"[1]": {"test_system": "male Sprague-Dawley rats with myocardial infarction (left coronary artery ligation)", "assay": "General characteristics and histology after eight weeks of treatment in rat coronary artery ligation (MI) model", "assay_type": "in vivo", "experimental": "(§1) The Animal Research Committee of the University of Groningen approved this study. Left coronary artery ligations were performed in 39 male Sprague-Dawley rats weighing 250 to 300 g (Harlan; Zeist, the Netherlands).^14 Perioperative mortality was 49%. Two weeks after induction of MI, rats were randomly allocated to intravenous infusion of either Ang-(1-7) (24 μg/kg per hour; n=10) or saline (n=10) by osmotic minipumps (Alzet 2004). Sham-operated controls (n=10) received saline. After eight weeks of treatment, hemodynamic studies were performed under isoflurane anesthesia with a microtip pressure transducer,^15 coronary flow was measured in a Langendorff setup,^14 endothelial function was tested in isolated aortic rings,^14 and plasma Ang-(1-7) levels were measured by radioimmunoassay.^16\nMidventricular slices were processed for histochemical analysis. Infarct size was determined on picrosirius red/fast green-stained sections and was expressed as the percentage of scar length of total left ventricular circumference.^14 Rats with infarcts smaller than 20% were excluded (n=3 for Ang-(1-7) and n=1 for saline-treated rats). Capillary density was determined on sections stained with biotin-labeled Griffonia siinplicifolia lectin I (GSL-I) and hematoxylin and was expressed as the number of capillaries per mm^2. Myocyte cross-sectional area was measured on hematoxylin/eosin-stained sections.\nData are presented as mean±SEM. Statistical analysis between the groups was performed by one-way ANOVA followed by Bonferroni's t test. Differences in dose-response curves were tested by ANOVA for repeated measures with Greenhouse-Geisser correction for asphericity. Differences were considered significant at P<0.05."}, "[2]": {"assay": "Plasma Ang-(1-7) levels by radioimmunoassay at end of intravenous infusion", "assay_type": "in vivo, rat", "details": "MI rats, iv infusion 24 μg/kg per hour", "experimental": "as §1"}, "[3]": {"test_system": "male Sprague-Dawley rats with myocardial infarction (left coronary artery ligation)", "assay": "In vivo hemodynamic studies under isoflurane anesthesia with microtip pressure transducer in MI rats", "set-up": "species or system rat", "experimental": "as §1\n(§2) After eight weeks of treatment, cardiac function was measured in vivo in anesthetized rats. […] Coronary flow was measured ex vivo in a Langendorff setup. […] Coronary endothelial function and maximal coronary flow were tested by a two-minute infusion of 3×10^−8 mol/L bradykinin and 10^−5 mol/L adenosine, respectively."}, "[4]": {"test_system": "hearts of infarcted rats (Langendorff setup)", "assay": "Ex vivo coronary flow in a Langendorff setup, hearts of treated MI rats", "set-up": "species or system rat", "experimental": "as §1, §2"}, "[5]": {"test_system": "isolated aortic rings of infarcted rats", "assay": "Endothelium-dependent relaxation in isolated aortic rings of treated MI rats", "assay_type": "in vivo, rat", "details": "aortic rings of MI rats after eight weeks of Ang-(1-7); P<0.05 versus MI control", "experimental": "as §1\nEndothelial dysfunction is a key feature in heart failure.^14 To examine the effects of Ang-(1-7) treatment on this aspect of cardiac failure, we investigated endothelium-dependent relaxation in isolated aortic rings. Phenylephrine elicited similar contractile responses in all three groups (data not shown). […] The relaxation in response to the endothelium independent vasodilator NaNO2 (10^−2 mol/L) was equal in the three groups (data not shown)."}, "[6]": {"details": "Ang-(1-7) 24 μg/kg per hour iv, eight weeks, mean ± SEM"}}, "data": [{"smiles": "CC[C@H](C)[C@H](NC(=O)[C@H](Cc1ccc(O)cc1)NC(=O)[C@@H](NC(=O)[C@H](CCCNC(=N)N)NC(=O)[C@@H](N)CC(=O)O)C(C)C)C(=O)N[C@@H](Cc1c[nH]cn1)C(=O)N1CCC[C@H]1C(=O)O", "note": "[Ang-(1-7), angiotensin-(1-7)]", "values": [{"measurement": "capillary density", "setting": "[1]; Ang-(1-7) 24 μg/kg per hour iv, eight weeks, GSL-I lectin stain, mean ± SEM", "value": "2578 ± 176", "unit": "N/mm^2"}, {"measurement": "myocyte cross-sectional area", "setting": "[1]; Ang-(1-7) 24 μg/kg per hour iv, eight weeks, hematoxylin/eosin-stained sections, mean ± SEM", "value": "409 ± 21"}, {"measurement": "LVW/BW (left ventricular weight body weight ratio)", "setting": "[1]; [6]", "value": "3.42 ± 0.10", "unit": "mg/g"}, {"measurement": "infarct size (percentage of scar length of total left ventricular circumference)", "setting": "[1]; [6]", "value": "29.6 ± 3.3", "unit": "%"}, {"measurement": "myocyte cross-sectional area increase after infarction, in words", "setting": "[1]; eight weeks of Ang-(1-7)", "value": "attenuated to a nonsignificant level"}, {"measurement": "capillary density versus saline-treated MI group, in words", "setting": "[1]; eight weeks of treatment", "value": "did not differ"}, {"measurement": "infarct size versus saline-treated MI group, in words", "setting": "[1]; eight weeks of treatment", "value": "did not differ"}, {"measurement": "[Ang-(1-7)] plasma concentration of angiotensin-(1-7)", "setting": "[2]; end of eight weeks of treatment, mean ± SEM", "value": "917.8 ± 194.1", "unit": "pmol/L"}, {"measurement": "increase of plasma levels of the peptide compared with MI controls", "setting": "[2]; end of treatment", "value": 40, "unit": "fold"}, {"measurement": "level at time molar at 1344 h", "setting": "[2]; male, Sprague-Dawley, rat, plasma, 24 ug/kg per hour, end of eight weeks of treatment, mean ± SEM, read-out: [Ang-(1-7)] plasma concentration of angiotensin-(1-7)", "value": "0.918 ± 0.194", "unit": "nM"}, {"measurement": "mean arterial pressure, in words", "setting": "[3]; MI rats infused with Ang-(1-7), eight weeks", "value": "an increase in mean arterial pressure was found"}, {"measurement": "reduction in left ventricular end-diastolic pressure", "setting": "[3]; MI rats, eight weeks of Ang-(1-7) treatment", "value": 40, "unit": "%"}, {"measurement": "cardiac function (hemodynamic parameters LVP, LVEDP, MAP, +dP/dt, −dP/dt) compared with sham, in words", "setting": "[3]; anesthetized MI rats after eight weeks of treatment", "value": "none of these parameters were significantly deteriorated, except the systolic dP/dt"}, {"measurement": "baseline coronary flow compared with sham-operated hearts, in words", "setting": "[4]; Langendorff, MI rats after eight weeks of Ang-(1-7)", "value": "almost completely preserved"}, {"measurement": "maximal coronary flow after adenosine infusion compared with sham, in words", "setting": "[4]; Langendorff, adenosine 10^−5 mol/L, MI rats after eight weeks of Ang-(1-7)", "value": "the difference did not reach statistical significance"}, {"measurement": "bradykinin-dependent coronary flow compared with sham, in words", "setting": "[4]; Langendorff, bradykinin 3×10^−8 mol/L, MI rats after eight weeks of Ang-(1-7)", "value": "not significantly impaired"}, {"measurement": "Ex vivo coronary flow, baseline", "setting": "[4]; hearts of MI rats after eight weeks of Ang-(1-7) 24 μg/kg per hour iv, baseline", "value": "8.2 ± 0.6 ml/min per g ventricular weight"}, {"measurement": "Ex vivo coronary flow, adenosine 10^−5 M", "setting": "[4]; hearts of MI rats after eight weeks of Ang-(1-7), two-minute infusion of adenosine 10^−5 M (maximal coronary flow)", "value": "12.3 ± 0.8 ml/min per g ventricular weight"}, {"measurement": "Ex vivo coronary flow, bradykinin 3 × 10^−8 M", "setting": "[4]; hearts of MI rats after eight weeks of Ang-(1-7), two-minute infusion of bradykinin 3 × 10^−8 M (coronary endothelial function)", "value": "11.1 ± 0.7 ml/min per g ventricular weight"}, {"measurement": "metacholine-induced relaxation of phenylephrine pre-contracted aortic rings, in words", "setting": "[5]", "value": "identical to sham rats"}]}]}
